Measured values taken from US8481537B2, “Caspase inhibitors based of pyridazinone scaffold” (LG Life Sciences Ltd., priority 2006, dated 2013).
pIC50: −log10 of the molar value.

Columns and labels:
[1] = tested on: Jurkat cell (ATCC TIB-152); assay: Jurkat cell apoptosis induced by Fas antibody, WST-1 method; type: cell-based; settings: Homo sapiens, amount of alive cells by WST-1
Experimental: The […] inhibitory activity of the inhibitors was determined by subjecting Jurkat cell (ATCC TIB-152) to apoptosis using Fas antibody (Upstate Biotech 05-201) and by detecting the color change according to the WST-1 method known in Francoeur A. M. and Assalian A. (1996) Biochemica 3, 19-25 to observe the amount of alive Jurkat cells when the cells were treated by the inhibitor. Spectra MAX 340 Spectrometer of Molecular Device Co. was used at the absorbance wavelength of 440 nm.

Caspase-8 = biological target: T1, Caspase-8 (Homo sapiens, UniProt Q14790); assay: Caspase inhibitory effect, fluorescent substrate AcDEVD-AFC; type: biochemical; settings: pH 7.5; 2.1 nM caspase-8, 50 μM AcDEVD-AFC, 25° C., pH 7.50; read-out: Caspase-8 Kobs/[I] (converted)
T1 construct: p10 and p20 subunits (Thornberry, N. A. et al, Nature, 1992, 356, 768) were expressed in E. coli; made in house; host or cells: E. coli
Experimental: Caspase-1 and caspase-8 known as cysteine proteases in the form of α2β2 were expressed, purified, and activated by modifying a method known in Thornberry, N. A. et al, Nature, 1992, 356, 768. Thornberry, N. A. Methods in Enzymology, 1994, 244, 615. Walker, N. P. C. et al. Cell, 1994, 78, 343, and caspase-9 was also purified by a similar method, and the inhibitory activity against them was tested. Briefly describing, p10 and p20 subunits (Thornberry, N. A. et al, Nature, 1992, 356, 768) were expressed in E. coli and purified by nickel column and anionic exchange chromatography to give caspase-1, caspase-8 and caspase-9. The fluorescent substrates AcYVAD-AFC for thus obtained caspase-1, AcDEVD-AFC for caspase-8, and AcLEHD-AFC for caspase-9, were used for determining specific activity of the synthesized inhibitors. The enzyme reaction was carried out at 25° C. with various concentrations of the inhibitors in a buffer solution containing 50 mM HEPES(pH 7.50), 10% (w/v) sucrose, 0.1% (w/v) CHAPS, 100 mM NaCl, 1 mM EDTA, and 10 mM DTT in the presence of 50 μM AcYVAD-AFC for 10 nM caspase-1, 50 μM AcDEVD-AFC for 2.1 nM caspase-8, and 150 μM AcLEHD-AFC for 200 nM caspase-9. The inhibitory constants Ki and Kobs of the inhibitors were determined by measuring the reaction velocity with the time lapse using a fluorescent spectrometer and by obtaining the initial rate constant. Ki was calculated from the Lineweaver Burk Plot, and Kobs from the following Equation 1. Kobs=−ln(1−At/Aoo)/t [Equation 1]
At means cleavage rate (%) at time t, and
Aoo means the maximum cleavage rate (%).
Spectra MAX GeminiXS Fluorescent Spectrometer of Molecular Device Co. was used at the excitation wavelength of 405 nm and the emission wavelength of 505 nm.

T1 sequence (Q14790 217-374 limits assumed, species assumed): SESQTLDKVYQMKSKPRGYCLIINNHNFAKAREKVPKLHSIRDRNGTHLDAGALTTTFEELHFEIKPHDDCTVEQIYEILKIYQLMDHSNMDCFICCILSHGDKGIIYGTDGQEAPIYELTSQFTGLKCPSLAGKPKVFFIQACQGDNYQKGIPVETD
T1 sequence (Q14790 385-479 limits assumed, species assumed): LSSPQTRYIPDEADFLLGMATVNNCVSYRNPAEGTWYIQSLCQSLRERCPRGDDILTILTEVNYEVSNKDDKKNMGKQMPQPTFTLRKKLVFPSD

Row | Structure (SMILES) | pIC50 [1] | kinact/KI (Caspase-8)
1 | CC[C@@H](C(=O)N[C@@H](CC(=O)O)C(=O)COC(=O)c1c(Cl)cccc1Cl)c1ccnn(Cc2ccccc2C(C)(C)C)c1=O (single isomer, unassigned) [Example 23-1] | 6.85 | 20000 M⁻¹ s⁻¹
2 | CC[C@H](C(=O)N[C@@H](CC(=O)O)C(=O)COC(=O)c1c(Cl)cccc1Cl)c1ccnn(Cc2ccccc2C(C)(C)C)c1=O (single isomer, unassigned) [Example 23-2] | 5.61 | 933 M⁻¹ s⁻¹
3 | CCC(C(=O)NC(CC(=O)O)C(=O)CF)c1c(C)cnn(-c2ccccc2)c1=O (centres unmarked) [Example 1, 5-Fluoro-3-[2-(5-methyl-3-oxo-2-phenyl-2,3-dihydro-pyridazin-4-yl)-butyrylamino]-4-oxo-pentanoic acid] | 5.10 | 967 M⁻¹ s⁻¹
4 | CCC(C(=O)NC(CC(=O)O)C(=O)CF)c1c(C)cnn(Cc2ccccc2)c1=O (centres unmarked) [Example 2, 3-[2-(2-Benzyl-5-methyl-3-oxo-2,3-dihydro-pyridazin-4-yl)-butyrylamino]-5-f luoro-4-oxo-pentanoic acid] | 5.83 | 7330 M⁻¹ s⁻¹
5 | CCC(C(=O)NC(CC(=O)O)C(=O)CF)c1ccnn(Cc2ccccc2)c1=O (centres unmarked) [Example 3, 3-[2-(2-Benzyl-3-oxo-2,3-dihydro-pyridazin-4-yl)-butyrylamino]-5-fluoro-4-o xo-pentanoic acid] | 6.34 | 21700 M⁻¹ s⁻¹
6 | CCC(C(=O)NC(CC(=O)O)C(=O)CF)c1c(Cl)cnn(Cc2ccccc2)c1=O (centres unmarked) [Example 4, 3-[2-(2-Benzyl-5-chloro-3-oxo-2,3-dihydro-pyridazin-4-yl)-butyrylamino]-5-fl uoro-4-oxo-pentanoic acid] | 6.41 | 6830 M⁻¹ s⁻¹
7 | CCC(C(=O)NC(CC(=O)O)C(=O)CF)c1c(OC)cnn(Cc2ccccc2)c1=O (centres unmarked) [Example 5, 3-[2-(2-Benzyl-5-methoxy-3-oxo-2,3-dihydro-pyridazin-4-yl)-butyrylamino]-5-fluoro-4-oxo-pentanoic acid] | 5.68 | 3830 M⁻¹ s⁻¹
8 | CCC(C(=O)NC(CC(=O)O)C(=O)CF)c1ccnn(Cc2ccccc2C(C)(C)C)c1=O (centres unmarked) [Example 6, 3-2-[2-(2-tert-Butyl-benzyl)-3-oxo-2,3-dihydro-pyridazin-4-yl]-butyrylamino-5-fluoro-4-oxo-pentanoic acid] | 7.38 | 63300 M⁻¹ s⁻¹
9 | CCC(C(=O)NC(CC(=O)O)C(=O)CF)c1ccnn(Cc2cccc(C(C)(C)C)c2)c1=O (centres unmarked) [Example 7, 3-2-[2-(3-tert-Butyl-benzyl)-3-oxo-2,3-dihydro-pyridazin-4-yl]-butyrylamino-5-fluoro-4-oxo-pentanoic acid] | 7.46 | 23300 M⁻¹ s⁻¹
10 | CCC(C(=O)NC(CC(=O)O)C(=O)CF)c1ccnn(Cc2ccccc2C)c1=O (centres unmarked) [Example 8, 5-Fluoro-3-2-[2-(2-methyl-benzyl)-3-oxo-2,3-dihydro-pyridazin-4-yl]-butyryl amino-4-oxo-pentanoic acid] | 6.09 | 20000 M⁻¹ s⁻¹
11 | CCC(C(=O)NC(CC(=O)O)C(=O)CF)c1ccnn(Cc2cccc(C)c2)c1=O (centres unmarked) [Example 9, 5-Fluoro-3-2-[2-(3-methyl-benzyl)-3-oxo-2,3-dihydro-pyridazin-4-yl]-butyryl amino-4-oxo-pentanoic acid] | 6.06 | 50000 M⁻¹ s⁻¹
12 | CCC(C(=O)NC(CC(=O)O)C(=O)CF)c1ccnn(Cc2cccc(OC)c2)c1=O (centres unmarked) [Example 10, 5-Fluoro-3-2-[2-(3-methoxy-benzyl)-3-oxo-2,3-dihydro-pyridazin-4-yl]-butyr ylamino-4-oxo-pentanoic acid] | 6.26 | 20000 M⁻¹ s⁻¹
13 | CCC(C(=O)NC(CC(=O)O)C(=O)CF)c1ccnn(Cc2cccc3ccccc23)c1=O (centres unmarked) [Example 11, 5-Fluoro-3-[2-(2-naphthalen-1-ylmethyl-3-oxo-2,3-dihydro-pyridazin-4-yl)-butyrylamino]-4-oxo-pentanoic acid] | 6.77 | 56700 M⁻¹ s⁻¹
14 | CCC(C(=O)NC(CC(=O)O)C(=O)CF)c1ccnn(Cc2ccc3ccccc3c2)c1=O (centres unmarked) [Example 12, 5-Fluoro-3-[2-(2-naphthalen-2-ylmethyl-3-oxo-2,3-dihydro-pyridazin-4-yl)-butyrylamino]-4-oxo-pentanoic acid] | 6.54 | 15500 M⁻¹ s⁻¹
15 | CCC(C(=O)NC(CC(=O)O)C(=O)CF)c1ccnn(Cc2coc(C)n2)c1=O (centres unmarked) [Example 13, 5-Fluoro-3-2-[2-(2-methyl-oxazol-4-ylmethyl)-3-oxo-2,3-dihydro-pyridazin-4-yl]-butyrylamino-4-oxo-pentanoic acid] | 5.42 | 11500 M⁻¹ s⁻¹
16 | CCC(C(=O)NC(CC(=O)O)C(=O)CF)c1ccnn(Cc2csc(C)n2)c1=O (centres unmarked) [Example 14, 5-Fluoro-3-2-[2-(2-methyl-thiazol-4-ylmethyl)-3-oxo-2,3-dihydro-pyridazin-4-yl]-butyrylamino-4-oxo-pentanoic acid] | 6.14 | 14000 M⁻¹ s⁻¹
17 | CCC(C(=O)NC(CC(=O)O)C(=O)CF)c1ccnn(Cc2c(C)noc2C)c1=O (centres unmarked) [Example 15, 3-2-[2-(3,5-Dimethyl-isoxazol-4-ylmethyl)-3-oxo-2,3-dihydro-pyridazin-4-yl]-butyrylamino-5-fluoro-4-oxo-pentanoic acid] | 6.10 | 12000 M⁻¹ s⁻¹
18 | CCC(C(=O)NC(CC(=O)O)C(=O)CF)c1ccnn(CC2CCCCC2)c1=O (centres unmarked) [Example 16, 3-[2-(2-Cyclohexylmethyl-3-oxo-2,3-dihydro-pyridazin-4-yl)-butyrylamino]-5-fluoro-4-oxo-pentanoic acid] | 7.05 | 12300 M⁻¹ s⁻¹
19 | CCC(C(=O)NC(CC(=O)O)C(=O)CF)c1ccnn(Cc2nccc3ccccc23)c1=O (centres unmarked) [Example 17, 5-Fluoro-3-[2-(2-isoquinolin-1-ylmethyl-3-oxo-2,3-dihydro-pyridazin-4-yl)-butyrylamino]-4-oxo-pentanoic acid] | 6.89 | 25000 M⁻¹ s⁻¹
20 | CCC(C(=O)NC(CC(=O)O)C(=O)CF)c1ccnn(Cc2ccccc2Cl)c1=O (centres unmarked) [Example 18, 3-{2-[2-(2-Chloro-benzyl)-3-oxo-2,3-dihydro-pyridazin-4-yl]-butyrylamino}-5-fluoro-4-oxo-pentanoic acid] | 7.38 | 73300 M⁻¹ s⁻¹
21 | CCC(C(=O)NC(CC(=O)O)C(=O)CF)c1ccnn(Cc2cccc(Cl)c2)c1=O (centres unmarked) [Example 19, 3-{2-[2-(3-Chloro-benzyl)-3-oxo-2,3-dihydro-pyridazin-4-yl]-butyrylamino}-5-fluoro-4-oxo-pentanoic acid] | 7.46 | 28300 M⁻¹ s⁻¹
22 | CCC(C(=O)NC(CC(=O)O)C(=O)CF)c1ccnn(Cc2cccc(Br)c2)c1=O (centres unmarked) [Example 20, 3-{2-[2-(3-Bromo-benzyl)-3-oxo-2,3-dihydro-pyridazin-4-yl]-butyrylamino}-5-fluoro-4-oxo-pentanoic acid] | 7.37 | 18300 M⁻¹ s⁻¹
23 | CCC(C(=O)NC(CC(=O)O)C(=O)CF)c1ccnn(Cc2ccccc2C(F)(F)F)c1=O (centres unmarked) [Example 21, 5-Fluoro-4-oxo-3-{2-[3-oxo-2-(2-trifluoromethyl-benzyl)-2,3-dihydro-pyridazin-4-yl]-butyrylamino}-pentanoic acid] | 7.37 | 66700 M⁻¹ s⁻¹
24 | CCC(C(=O)NC(CC(=O)O)C(=O)CF)c1ccnn(Cc2cccc(C(F)(F)F)c2)c1=O (centres unmarked) [Example 22, 5-Fluoro-4-oxo-3-{2-[3-oxo-2-(3-trifluoromethyl-benzyl)-2,3-dihydro-pyridazin-4-yl]-butyrylamino}-pentanoic acid] | 6.67 | 14300 M⁻¹ s⁻¹
25 | CC[C@H](C(=O)N[C@@H](CC(=O)O)C(=O)COc1c(F)ccc(F)c1F)c1ccnn(Cc2ccccc2C(C)(C)C)c1=O [Example 26-2, (S)-3-{(S)-2-[2-(2-tert-Butyl-benzyl)-3-oxo-2,3-dihydro-pyridazin-4-yl]-butyrylamino}-4-oxo-5-(2,3,6-trifluoro-phenoxy)-pentanoic acid] |  | 7830 M⁻¹ s⁻¹
26 | CC[C@H](C(=O)N[C@@H](CC(=O)O)C(=O)COc1c(F)cccc1F)c1ccnn(Cc2ccccc2C(C)(C)C)c1=O [Example 27-2, (S)-3-{(S)-2-[2-(2-tert-Butyl-benzyl)-3-oxo-2,3-dihydro-pyridazin-4-yl]-butyrylamino}-5-(2,6-difluoro-phenoxy)-4-oxo-pentanoic acid] |  | 3170 M⁻¹ s⁻¹
